pEC50, pKi: −log10 of the molar value. Values joined by “and” are separate entries in the source; they are usually repeats but may differ in a detail not shown here. Identical values can stand only once.
Experiments:
Assay in all cases: Synthesizing Selective Agonists for the ?7 Nicotinic Receptor with in situ Click-Chemistry on Acetylcholine Binding Protein Templates.
[1] = biological target: Neuronal acetylcholine receptor subunit alpha-4 (Homo sapiens, UniProt P43681); details: pH 7.4; 37 °C
Protocol: (§1) Assay Description 2 Assays used to generate Ki or EC50 values. 1) SPA Assay - Quick screen binding assays were performed using 100 l of 0.2 mg/ml anti-mouse SPA antibody-binding beads (Amersham Biosciences) mixed with 33.6 g of monoclonal anti-FLAG M2 antibody from mouse (Sigma) in 0.1 M NaPO4 buffer, pH 7.0 (SPA mixture). Media (5l) collected 2 days after transfection were added to the mixture and finally 10 l of (+)-[3H]epibatidine (PerkinElmer Life Sciences) was added at a final concentration of 10 nM. Solutions were each counted for 1 min on either a Beckman LS 6500 liquid scintillation counter or Wallac 1450 Microbeta Trilux. Negative and positive controls consisted of media (5 l) from the respective transfections. Nonexpressing mutants were transfected and verified de novo in triplicate. Western immunoblots were also performed upon media (15 l) from transfections to verify the lack of expression. Competition curves and direct binding were measured following the protocol p

[2] = biological target: Acetylcholine-binding protein (Lymnaea stagnalis, UniProt P58154); details: pH 7.4; 20 °C
Chain of Acetylcholine-binding protein (P58154 whole entry): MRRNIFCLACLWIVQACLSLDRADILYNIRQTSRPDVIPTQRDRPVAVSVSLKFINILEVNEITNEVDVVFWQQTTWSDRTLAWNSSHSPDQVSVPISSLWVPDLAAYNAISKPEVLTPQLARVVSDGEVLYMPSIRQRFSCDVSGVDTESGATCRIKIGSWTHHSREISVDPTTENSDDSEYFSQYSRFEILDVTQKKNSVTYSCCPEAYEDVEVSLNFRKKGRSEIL
Protocol: as §1

[3] = biological target: T1, 5-hydroxytryptamine receptor 3A (Mus musculus, UniProt P23979); details: pH 7.4; 37 °C
T1 sequence (P23979 whole entry): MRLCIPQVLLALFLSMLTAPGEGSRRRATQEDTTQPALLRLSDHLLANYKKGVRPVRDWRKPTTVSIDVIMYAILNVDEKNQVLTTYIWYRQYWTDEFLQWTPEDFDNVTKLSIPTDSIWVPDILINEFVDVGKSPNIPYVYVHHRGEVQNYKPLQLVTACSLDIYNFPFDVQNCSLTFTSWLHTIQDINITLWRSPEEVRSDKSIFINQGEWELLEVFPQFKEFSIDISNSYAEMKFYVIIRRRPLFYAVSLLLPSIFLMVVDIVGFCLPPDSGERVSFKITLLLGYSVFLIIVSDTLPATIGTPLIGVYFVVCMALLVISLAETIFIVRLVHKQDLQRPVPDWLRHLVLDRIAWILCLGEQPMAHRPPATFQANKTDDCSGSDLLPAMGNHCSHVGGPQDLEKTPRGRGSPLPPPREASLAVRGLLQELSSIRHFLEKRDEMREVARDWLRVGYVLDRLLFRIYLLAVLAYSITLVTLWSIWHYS
Protocol: as §1

[4] = biological target: Neuronal acetylcholine receptor subunit alpha-7 (Homo sapiens, UniProt P36544); details: pH 7.4; 37 °C
Chain of Neuronal acetylcholine receptor subunit alpha-7 (P36544 whole entry): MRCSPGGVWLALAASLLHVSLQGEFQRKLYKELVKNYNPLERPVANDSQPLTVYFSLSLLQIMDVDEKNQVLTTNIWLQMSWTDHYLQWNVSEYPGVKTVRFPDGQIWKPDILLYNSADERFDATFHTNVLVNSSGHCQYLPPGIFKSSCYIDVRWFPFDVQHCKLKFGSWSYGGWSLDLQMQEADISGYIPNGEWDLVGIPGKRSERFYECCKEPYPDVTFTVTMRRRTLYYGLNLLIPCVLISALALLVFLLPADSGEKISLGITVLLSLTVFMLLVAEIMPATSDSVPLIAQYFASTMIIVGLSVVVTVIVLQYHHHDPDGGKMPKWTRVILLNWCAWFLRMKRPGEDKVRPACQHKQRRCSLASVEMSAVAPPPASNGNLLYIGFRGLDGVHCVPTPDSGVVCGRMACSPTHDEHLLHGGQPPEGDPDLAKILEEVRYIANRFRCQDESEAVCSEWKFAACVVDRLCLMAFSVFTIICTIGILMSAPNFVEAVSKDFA
Protocol: as §1

[5] = biological target: T2, Soluble acetylcholine receptor (Aplysia californica, UniProt Q8WSF8); details: pH 7.4; 20 °C
T2 sequence (Q8WSF8 whole entry): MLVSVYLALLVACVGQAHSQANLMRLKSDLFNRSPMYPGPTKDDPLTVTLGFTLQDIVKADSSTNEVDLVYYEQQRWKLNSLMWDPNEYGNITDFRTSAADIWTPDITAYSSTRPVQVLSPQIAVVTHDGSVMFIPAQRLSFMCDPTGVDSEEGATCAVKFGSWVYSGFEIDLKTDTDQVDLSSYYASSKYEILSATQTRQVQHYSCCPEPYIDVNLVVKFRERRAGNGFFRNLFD
Protocol: as §1

Chain of Neuronal acetylcholine receptor subunit alpha-4 (P43681 whole entry): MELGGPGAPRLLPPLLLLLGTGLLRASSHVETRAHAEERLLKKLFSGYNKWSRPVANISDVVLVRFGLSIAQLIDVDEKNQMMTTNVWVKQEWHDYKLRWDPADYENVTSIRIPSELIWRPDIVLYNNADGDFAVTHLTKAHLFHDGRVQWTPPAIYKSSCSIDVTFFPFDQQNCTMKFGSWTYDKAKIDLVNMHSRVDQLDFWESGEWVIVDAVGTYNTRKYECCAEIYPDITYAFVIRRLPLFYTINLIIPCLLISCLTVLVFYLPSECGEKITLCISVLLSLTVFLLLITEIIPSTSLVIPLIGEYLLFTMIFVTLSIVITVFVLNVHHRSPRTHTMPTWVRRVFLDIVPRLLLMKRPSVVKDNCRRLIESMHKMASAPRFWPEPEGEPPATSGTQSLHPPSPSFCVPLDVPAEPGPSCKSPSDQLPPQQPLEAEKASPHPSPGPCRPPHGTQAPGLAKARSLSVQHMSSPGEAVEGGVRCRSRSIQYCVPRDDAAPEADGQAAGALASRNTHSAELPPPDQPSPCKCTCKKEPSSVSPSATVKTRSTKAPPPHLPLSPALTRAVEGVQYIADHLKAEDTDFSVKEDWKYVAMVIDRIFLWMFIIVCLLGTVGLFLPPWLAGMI

| Structure (SMILES) | pKi [1] | pKi [2] | pKi [3] | pEC50 [4] | pKi [5] |
| --- | --- | --- | --- | --- | --- |
| CCC[N+](C)(C)CCn1nncc1COc1cc(=O)n(C)c2ccccc12 [2'] | < 4.52 | 7.40 | < 4.52 | 5.38 | 6.10 and 6.68 |
| O=c1cc(OCc2cnnn2CC[N+]23CCC(CC2)CC3)c2ccccc2[nH]1 [3'] | 4.52 | 7.62 | < 4.52 | 5.54 | 6.60 and 6.54 |
| CN1CC=C(OCc2cnnn2C2CC3CCC(C2)[N+]3(C)C)c2ccccc21 (stereo unspecified) [4'] | 4.64 | 8.70 | 6.05 | 6.22 | 6.52 and 7.00 |
| Cn1c(=O)cc(OCc2cnnn2CCC[N+]2(C)CCCC2)c2ccccc21 [5'] | 4.40 | 6.22 | < 4.52 | 5.70 | 5.85 and 6.10 |
| CC(=O)NCc1cn([C@@H]2C[C@H]3CC[C@@H](C2)[N+]3(C)C)nn1 [10q] | < 4.52 | < 5.30 | < 4.52 | 5.30 | 6.10 and < 5.30 and 6.05 |
| CC(=O)NCc1cn([C@@H]2C[C@H]3CC[C@@H](C2)N3C)nn1 [10t] | 4.74 | 6.05 | < 4.52 | < 4.52 | < 5.30 |
| C[N+]1(C)[C@@H]2CC[C@H]1C[C@H](n1cc(C3(O)CCCCC3)nn1)C2 [11q] | < 4.52 | < 5.30 | < 4.52 | 5.05 |  |
| CN1[C@@H]2CC[C@H]1C[C@H](n1cc(C3(O)CCCCC3)nn1)C2 [11t] | < 4.52 | < 5.30 | < 4.52 | < 4.52 | < 5.30 |
| C[N+]1(C)[C@@H]2CC[C@H]1C[C@H](n1cc(CNC(=O)c3ccco3)nn1)C2 [12q] | < 4.52 | 6.40 | < 4.52 | 5.52 | 6.22 and 6.00 and 6.15 |
| CN1[C@@H]2CC[C@H]1C[C@H](n1cc(CNC(=O)c3ccco3)nn1)C2 [12t] | 4.70 | 6.68 | < 4.52 | < 4.52 | < 5.30 and 5.85 |
| COc1ccc(C=O)c(OCc2cn([C@@H]3C[C@H]4CC[C@@H](C3)[N+]4(C)C)nn2)c1 [13q] | 5.15 | 7.70 | < 4.52 | 6.10 | 6.96 and 6.92 and 7.10 |
| COc1ccc(C=O)c(OCc2cn([C@@H]3C[C@H]4CC[C@@H](C3)N4C)nn2)c1 [13t] | 5.30 | 7.59 | 5.30 | < 4.52 |  |
| C[N+]1(C)[C@@H]2CC[C@H]1C[C@H](n1cc(COc3ccccc3-c3ccno3)nn1)C2 [14q] | < 4.52 | 7.30 | < 4.52 | 5.70 | 6.85 and 6.77 and 7.02 |
| CN1[C@@H]2CC[C@H]1C[C@H](n1cc(COc3ccccc3-c3ccno3)nn1)C2 [14t] | < 4.52 | 7.60 | < 4.52 | < 4.52 |  |
| C[N+]1(C)[C@@H]2CC[C@H]1C[C@H](n1cc(CSc3nc4ccccc4s3)nn1)C2 [15q] | 5.52 | 8.40 | < 4.52 | 6.70 | 7.89 and 8.10 |
| CN1[C@@H]2CC[C@H]1C[C@H](n1cc(CSc3nc4ccccc4s3)nn1)C2 [15t] | 4.49 | 7.40 | 4.49 | 4.92 | 6.62 and 6.85 and 6.96 |
| C[N+]1(C)[C@@H]2CC[C@H]1C[C@H](n1cc(CNS(=O)(=O)c3ccc([N+](=O)[O-])cc3)nn1)C2 [16q] | < 4.52 | < 5.30 | < 4.52 | 5.74 | 6.21 and 6.10 and 6.22 |
| CN1[C@@H]2CC[C@H]1C[C@H](n1cc(CNS(=O)(=O)c3ccc([N+](=O)[O-])cc3)nn1)C2 [16t] | < 4.52 | < 5.30 | < 4.52 | 5.30 | < 5.30 |
| C[N+]1(C)[C@@H]2CC[C@H]1C[C@H](n1cc(-c3cc(C(F)(F)F)cc(C(F)(F)F)c3)nn1)C2 [17q] | 5.30 | 6.89 | 5.10 | 6.05 | 6.96 and 6.52 and 6.40 |
| CN1[C@@H]2CC[C@H]1C[C@H](n1cc(-c3cc(C(F)(F)F)cc(C(F)(F)F)c3)nn1)C2 [17t] | < 4.52 | 6.22 | < 4.52 | < 4.52 | 5.96 and < 5.30 |

| Structure (SMILES) | pKi [1] | pKi [2] | pKi [3] | pEC50 [4] | pKi [5] |
| --- | --- | --- | --- | --- | --- |
| C[N+]1(C)[C@@H]2CC[C@H]1C[C@H](n1cc(COc3ccccc3C3CCCC3)nn1)C2 [18q] | 5.40 | 7.15 | < 4.52 | 6.40 | 6.59 and 6.57 and 6.36 |
| CN1[C@@H]2CC[C@H]1C[C@H](n1cc(COc3ccccc3C3CCCC3)nn1)C2 [18t] | 4.92 | 7.52 | 4.92 | < 4.52 |  |
| C[N+]1(C)[C@@H]2CC[C@H]1C[C@H](n1cc(C(O)(c3ccccc3)C(F)(F)F)nn1)C2 (stereo partly specified) [19q] | 4.66 | 6.92 | < 4.52 | 5.70 |  |
| CN1[C@@H]2CC[C@H]1C[C@H](n1cc(C(O)(c3ccccc3)C(F)(F)F)nn1)C2 (stereo partly specified) [19t] | < 4.52 | < 5.30 | < 4.52 | < 4.52 | < 5.30 |
| C[N+]1(C)[C@@H]2CC[C@H]1C[C@H](n1cc(C3(O)c4ccccc4-c4ccccc43)nn1)C2 [20q] | 4.82 | 7.30 | < 4.52 | 5.40 | 6.40 and 6.22 and 6.92 |
| CN1[C@@H]2CC[C@H]1C[C@H](n1cc(C3(O)c4ccccc4-c4ccccc43)nn1)C2 [20t] | < 4.52 | 6.30 | < 4.52 | 4.92 | 5.70 and 5.51 and < 5.30 |
| Cc1cc(C)nc(SCCCc2cn([C@@H]3C[C@H]4CC[C@@H](C3)[N+]4(C)C)nn2)n1 [21q] | 4.57 | 7.40 | < 4.52 | 5.52 |  |
| Cc1cc(C)nc(SCCCc2cn([C@@H]3C[C@H]4CC[C@@H](C3)N4C)nn2)n1 [21t] | < 4.52 | 6.52 | < 4.52 | < 4.52 |  |
| CC(=O)c1c(OCc2cn([C@@H]3C[C@H]4CC[C@@H](C3)[N+]4(C)C)nn2)ccc2ccccc12 [22q] | < 4.52 | 6.80 | < 4.52 | 6.40 | 6.70 and 6.52 and 6.05 |
| CC(=O)c1c(OCc2cn([C@@H]3C[C@H]4CC[C@@H](C3)N4C)nn2)ccc2ccccc12 [22t] | 4.92 | 6.85 | 4.92 | 5.05 | 6.10 and 6.15 and < 5.30 |
| C[N+]1(C)[C@@H]2CC[C@H]1C[C@H](n1cc(CNC(=O)N3c4ccccc4CCc4ccccc43)nn1)C2 [23q] | 4.52 | 6.30 | < 4.52 | 5.10 | 6.38 and 6.00 and 5.70 |
| Cn1c(=O)cc(OCc2cn(CC[N+]3(C)CCCCC3)nn2)c2ccccc21 [alpha7 agonists 2] | 4.92 |  | < 4.52 | 5.92 |  |
| Cn1c(=O)cc(OCc2cn(CC[N+]34CCC(CC3)CC4)nn2)c2ccccc21 [alpha7 agonists 3] | 5.10 |  | < 4.52 | 5.74 |  |
| Cn1c(=O)cc(OCc2cn([C@@H]3C[C@H]4CC[C@@H](C3)[N+]4(C)C)nn2)c2ccccc21 [alpha7 agonists 4] | 5.40 |  | 4.47 | 6.52 |  |
| CN1[C@@H]2CC[C@H]1C[C@H](n1cc(COc3cc(=O)n(C)c4ccccc34)nn1)C2 [alpha7 agonists 4t] | 4.85 | 8.89 | 4.82 | 4.96 |  |
| Cn1c(=O)cc(OCc2cn(CCC[N+]3(C)CCCC3)nn2)c2ccccc21 [alpha7 agonists 5] | 4.74 |  | < 4.52 | 6.10 |  |
| C[N+](C)(C)CCn1cc(COc2cc([O])nc3ccccc23)nn1 [alpha7 agonists 6] | 4.85 |  | < 4.52 | 5.77 |  |
| C[N+]1(C)[C@@H]2CC[C@H]1C[C@H](n1cc(COc3cccc(C#N)c3)nn1)C2 [alpha7 agonists 7] | < 4.52 |  | < 4.52 | 6.05 |  |
| COc1cc(C=O)ccc1OCc1cn([C@@H]2C[C@H]3CC[C@@H](C2)[N+]3(C)C)nn1 [alpha7 agonists 8] | 5.22 |  | < 4.52 | 6.00 |  |
| Cc1cc([N+](=O)[O-])ccc1OCc1cn([C@@H]2C[C@H]3CC[C@@H](C2)[N+]3(C)C)nn1 [alpha7 agonists 9] | 4.85 |  | < 4.52 | 5.72 |  |
